Results as given in patent US20180339015A1, “Therapeutic Nanoparticles Comprising An Antibiotic and Methods of Making and Using Same” (priority 2015, published 2018).

Experiments:
[1] = system: Salmonella spp; conditions: cited from earlier work
[2] = system: Shigella spp; conditions: cited from earlier work
[3] = system: Citrobacter spp; conditions: cited from earlier work
[4] = system: E. coli; conditions: cited from earlier work
[5] = system: P. aeruginosa; conditions: cited from earlier work
[6] = system: K. pneumoniae; conditions: cited from earlier work
[7] = system: Acinetobacter species; conditions: cited from earlier work
[8] = system: Enterobacter spp; conditions: cited from earlier work
[9] = mice, intravenous injection
[10] = system: Klebsiella; assay: Klebsiella thigh infection model, efficacy and biodistribution; type: in vivo
Protocol: CS-NPs were further tested for their efficacy and biodistribution in a Klebsiella thigh infection model. […] In summary. CS-NPs have the same efficacy as free CS in a thigh infection model after 24 hours.

[11] = system: K. pneumonia; assay: K. pneumonia lung infection model; type: in vivo; conditions: single 40 mg/kg dose s.c., n=6
Protocol: CS-NPs were tested for their efficacy in a K. pneumonia lung infection model. Results are depicted in FIG. 11.

Row | Substance | MIC90 [1] | MIC90 [2] | MIC90 [3] | MIC90 [4] | MIC90 [5] | MIC90 [6] | MIC90 [7] | MIC50 [8] | LD50 [9] | MTD [9] | bacteremia ([10]; thigh infection model) | bacteria counts in site of infection ([10]; thigh, after 24 hours) | animals sterilized [11]
1 | colistin | ≤ 1 mg/L | ≤ 0.5 mg/L | ≤ 1 mg/L | ≤ 2 mg/L | ≤ 4 mg/L | ≤ 1 mg/L | ≤ 2 mg/L | ≤ 1 mg/L | – | – | – | – | –
2 | colistin sulphate [CS] | – | – | – | – | – | – | – | – | 6 mg/kg | 2 mg/kg | prevented bacteremia | significantly decreased bacteria counts | 50%
